Data as given in ChEMBL document CHEMBL1130716, “The solid phase synthesis of a series of tri-substituted hydantoin ligands for the somatostatin SST5 receptor” (Bioorg Med Chem Lett, 1998).
Activity calls are given as the source filed them. No cut-off for these calls is given here.

How the values were obtained:
Assay type in all cases: cell-based
[1] = biological target: Somatostatin receptor type 2 (Homo sapiens) (UniProt P30874); test: Tested for inhibitory activity at human recombinant sst 2 receptors expressed in CHO-K1 cells; No inhibition showed more than 50% inhibition
Somatostatin receptor type 2 (Homo sapiens), sequence (P30874 whole entry): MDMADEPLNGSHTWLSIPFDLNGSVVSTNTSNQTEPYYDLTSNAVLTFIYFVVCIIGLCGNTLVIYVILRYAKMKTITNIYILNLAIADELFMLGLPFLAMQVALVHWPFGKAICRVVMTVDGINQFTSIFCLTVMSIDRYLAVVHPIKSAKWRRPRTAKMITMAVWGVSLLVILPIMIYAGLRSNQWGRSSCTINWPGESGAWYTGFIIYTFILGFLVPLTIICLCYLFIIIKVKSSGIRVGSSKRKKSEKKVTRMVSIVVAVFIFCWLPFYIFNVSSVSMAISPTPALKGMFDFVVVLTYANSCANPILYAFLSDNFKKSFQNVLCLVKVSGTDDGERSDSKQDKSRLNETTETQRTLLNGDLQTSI

[2] = biological target: T1, Somatostatin receptor type 5 (Homo sapiens, UniProt P35346); test: Compound was tested for inhibition of specific [125I]Tyr11-SRIF binding to human recombinant SST5 (somatostatin) receptor expressed in CHO-K1 cells
T1 sequence (P35346 whole entry): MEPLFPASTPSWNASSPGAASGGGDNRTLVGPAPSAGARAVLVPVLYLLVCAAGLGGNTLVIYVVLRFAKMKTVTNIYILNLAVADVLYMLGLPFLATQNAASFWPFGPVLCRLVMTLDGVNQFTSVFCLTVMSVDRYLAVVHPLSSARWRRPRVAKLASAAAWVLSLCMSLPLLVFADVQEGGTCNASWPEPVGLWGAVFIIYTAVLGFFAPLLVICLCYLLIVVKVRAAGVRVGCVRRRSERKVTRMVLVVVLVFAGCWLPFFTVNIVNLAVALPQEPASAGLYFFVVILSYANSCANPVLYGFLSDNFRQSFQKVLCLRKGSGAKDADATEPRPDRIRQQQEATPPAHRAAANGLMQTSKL

[3] = biological target: T1, Somatostatin receptor type 5; test: Compound was tested for inhibition of specific [125I]-Tyr11-SRIF binding to human recombinant SST5 (somatostatin) receptor expressed in CHO-K1 cells at 10e-6 M concentration

| Activity [1] | IC50 [2] [µM] | inhibition [3] [%] | Structure (SMILES) |
| --- | --- | --- | --- |
| inactive | 0.316 |  | O=C1[C@H](Cc2ccc(OCc3ccccc3)cc2)N(CCC#Cc2ccccc2)C(=O)N1CCN1CCCC1 |
| inactive |  | 49 | O=C1[C@H](Cc2cccc3ccccc23)N(CCCCc2ccccc2)C(=O)N1CCN1CCCC1 |
| inactive | 0.398 |  | O=C1[C@H](Cc2cccc3ccccc23)N(CCC#Cc2ccccc2)C(=O)N1CCN1CCCC1 |
| inactive | 0.501 |  | COc1ccc(CCCCN2C(=O)N(CCN3CCCC3)C(=O)[C@@H]2Cc2ccc(OCc3ccccc3)cc2)cc1 |
| inactive | 0.316 |  | O=C1[C@H](Cc2ccc(OCc3ccccc3)cc2)N(CCCCc2ccccc2)C(=O)N1CCN1CCCC1 |
| inactive |  | 60 | COc1ccc(CCCCN2C(=O)N(CCN3CCCC3)C(=O)[C@@H]2Cc2cccc3ccccc23)cc1 |
| inactive | 1.41 |  | NCCCC[C@@H](NC(=O)CC1SC(c2ccccc2)N([C@@H](Cc2ccc(-c3ccccc3)cc2)C(N)=O)C1=O)C(N)=O (some centres undefined) |
